# Assay results as given in PMC8397634 (Journal of Natural Medicines, 2021).
# Legend:
# α4β2 nAChRs [1] = target: T1, α4β2 nAChRs (Homo sapiens, UniProt P17787+P43681); assay: In vitro α4β2 nAChR radioligand displacement binding assay; design: host or cells: SH-SY5Y cells (human recombinant), membrane preparation; conditions: 10 µM single concentration; effect greater than 50% considered significant
# Experimental: (§1) All binding and functional assays for molecular target characterization were conducted by Eurofins Cerep SA (Celle-Lévescault, France) and Eurofins Panlabs Discovery Services Taiwan, Ltd. (New Taipei City, Taiwan) using their standard in vitro binding and functional assays (Online Source 2). The radioligand displacement binding assays employed the gold-standard filtration method using membrane preparations from stable cell lines expressing human or rodent target proteins to determine the interaction of the compounds with specific receptors, channels, and transporters. For this purpose, the competitive binding of test compounds against a [^125I]-, [^3H]-, or [^35S]-labeled agonist and/or antagonist was determined. The specific list of radiolabeled ligands and experimental conditions are summarized in Online Source 2. A single concentration of each compound (10 µM in 0.1% DMSO) was used for the screen. […] Negative values were considered to be an artifact arising from, for example, compounds interfering with the assay readout.
# (§2) Assay Source Ligand Conc. Kd Non Specific Incubation Detection Bibl.
# [2] = test system: zebrafish (Danio rerio; strain AB); conditions: in vivo
# Experimental: The NTT conditions closely matched the most commonly used conditions described by. In brief, adult male and female wild-type zebrafish were treated with the compounds for 20 min in a final volume of 50 mL in a 250-mL treatment beaker, one fish at a time. The fish were briefly rinsed in fresh system water, and then immediately transferred to a trapezoidal tank (14.6-cm height × 5.5-cm width × 27.9-cm top length and × 23.6-cm bottom length) filled with 1.5 L system water. The behavior of the fish was monitored for the next 5 min using the Noldus EthoVision XT system (Wageningen, Netherlands), with the camera placed approximately 1 m from the test tank. The tanks were uniformly illuminated from above at approximately 200 lx, reported to be the optimal illumination condition for NTT [23]. Background noise was kept at a minimum during the test. All experimental parameters were monitored closely and kept as consistent as possible throughout the study. The part of the tank filled with water (11.5-cm height) was virtually divided into top, center, and bottom of equal heights (approximately 3.8 cm per segment) for the analyses. The average time spent at the top and bottom portions of the tank was analyzed to determine the anxiety-like behavior of fish. The average total distance traveled and freezing time (as defined by a complete cessation of movement except for gills and eyes) were calculated to determine the effects of the compounds on the general behavior of fish. The analyses were conducted for 1-min time bins. To account for any day-to-day variability in fish behavior, fish treated with vehicle were tested on the same day as the compounds. […] A minimum of 12 fish (6 females and 6 males) per condition were used for the study. The actual sample size per condition is indicated in Online Resource 1. […] The experimenters were blind to the test conditions. The NTT was validated with buspirone, a clinical anxiolytic drug, as previously described.
# If not, the concentration was reduced until no obvious signs of tolerability problems were observed. […] The concentrations were calculated based on the free base molecular weight.
# Two-way repeated measures analysis of variance (ANOVA) with Dunnett post hoc was used for the 1-min binned analysis of the zebrafish NTT data. Treatment was one factor, and time was the second factor. […] Thus, male and female datasets were combined for the final analyses. […] The EC50 values were determined by applying the nonlinear regression analysis. All analyses were conducted using GraphPad Prism v8.2.1 (GraphPad Software, San Diego, CA, USA).
# muscle-type nAChR = target: T2, muscle-type nAChR (Homo sapiens, UniProt P02708+P07510+Q07001); assay: Muscle-type nAChR radioligand binding (target profiling); conditions: 10 µM single concentration; effect greater than 50% considered significant
# T2 construct: TE671 cells; host or cells: TE671 cells (endogenous)
# T2 sequence (P02708 21-457): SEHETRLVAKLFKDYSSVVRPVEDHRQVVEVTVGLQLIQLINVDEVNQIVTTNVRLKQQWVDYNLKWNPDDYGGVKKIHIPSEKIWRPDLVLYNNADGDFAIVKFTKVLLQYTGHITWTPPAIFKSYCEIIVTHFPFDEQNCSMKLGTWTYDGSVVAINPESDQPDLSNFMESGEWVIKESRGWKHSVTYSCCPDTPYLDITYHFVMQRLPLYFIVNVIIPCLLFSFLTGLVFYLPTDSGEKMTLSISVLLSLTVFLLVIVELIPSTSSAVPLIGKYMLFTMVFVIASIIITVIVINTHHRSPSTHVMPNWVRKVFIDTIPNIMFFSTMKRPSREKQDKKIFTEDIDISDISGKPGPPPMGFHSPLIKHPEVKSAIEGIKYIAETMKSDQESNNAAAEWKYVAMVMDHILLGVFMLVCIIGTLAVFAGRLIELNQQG
# T2 sequence (Q07001 22-517): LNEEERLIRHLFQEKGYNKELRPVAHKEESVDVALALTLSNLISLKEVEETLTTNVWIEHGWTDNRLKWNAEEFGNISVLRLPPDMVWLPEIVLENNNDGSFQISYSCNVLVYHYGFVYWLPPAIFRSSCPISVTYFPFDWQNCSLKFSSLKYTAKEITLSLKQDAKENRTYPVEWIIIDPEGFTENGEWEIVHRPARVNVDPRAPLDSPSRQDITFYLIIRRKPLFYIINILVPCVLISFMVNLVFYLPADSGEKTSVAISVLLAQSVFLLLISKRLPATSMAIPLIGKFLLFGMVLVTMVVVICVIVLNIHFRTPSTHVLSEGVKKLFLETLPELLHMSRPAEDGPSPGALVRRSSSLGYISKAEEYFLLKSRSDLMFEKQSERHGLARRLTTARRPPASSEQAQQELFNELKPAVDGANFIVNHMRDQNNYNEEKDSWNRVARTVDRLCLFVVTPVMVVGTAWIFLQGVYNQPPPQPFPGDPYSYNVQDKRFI
# T2 sequence (P07510 23-517): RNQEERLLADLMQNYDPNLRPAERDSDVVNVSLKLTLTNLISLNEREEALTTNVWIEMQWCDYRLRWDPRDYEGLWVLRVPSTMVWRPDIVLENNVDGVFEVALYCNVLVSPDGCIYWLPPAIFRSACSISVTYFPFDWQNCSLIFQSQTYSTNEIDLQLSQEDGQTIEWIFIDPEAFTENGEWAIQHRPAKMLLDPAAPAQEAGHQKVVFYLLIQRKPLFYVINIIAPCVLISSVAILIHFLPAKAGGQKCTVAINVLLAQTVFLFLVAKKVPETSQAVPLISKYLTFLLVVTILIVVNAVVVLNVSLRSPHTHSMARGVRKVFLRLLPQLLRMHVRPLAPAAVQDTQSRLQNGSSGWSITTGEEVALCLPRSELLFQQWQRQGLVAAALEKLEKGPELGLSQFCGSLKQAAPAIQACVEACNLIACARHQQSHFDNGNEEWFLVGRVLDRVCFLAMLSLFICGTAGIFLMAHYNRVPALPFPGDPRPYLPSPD
# Experimental: as §1, §2
# α4β2 nAChRs [3] = target: T1, α4β2 nAChRs; assay: In vitro nAChR functional assay (automated patch-clamp, CHO cells); assay type: cell-based
# Experimental: Electrophysiological responses were recorded using an automated patch-clamp Patchliner Octo® system (Nanion Technologies, Munich, Germany) equipped with two EPC-10 Quadro patch-clamp amplifiers (HEKA Elektronik, Lambrecht, Germany) as described previously. Chinese hamster ovarian (CHO) cells stably expressing human α4β2 nAChRs (Charles River Laboratories, Wilmington, MA, USA) were used. All experiments were performed at room temperature (24 °C) and repeated at least three times. Data were analyzed using Patchmaster software (HEKA Elektronik). Offline data analysis was performed in Apache OpenOffice™ (v4.1.2; […]). Igor Pro software (v6.2.2.2; WaveMetrics, Lake Oswego, OR, USA) was used to determine EC50 values. […] The average values were then fitted to the Hill equation: I=Baseline+X^∧nH(Imax-Baseline)/X^∧nH+EC50^∧nH, where I is the current response, Baseline is the minimal current response, X is the agonist concentration, nH is the Hill coefficient, Imax is the maximal current, and EC50 is the agonist concentration producing half-maximal activation. […]
# [4] = Brain bioavailability assay in zebrafish (UPLC-HRMS of brain homogenate); assay type: in vivo, Danio rerio; conditions: both sexes, zebrafish (Danio rerio), in vivo, 1 mg/L; zebrafish brain after 20-min exposure; linear relationship assumed; mean ± SEM; read-out: Relative brain level per 1 mg/L compound
# Experimental: Four fish (2 males and 2 females) per compound were used to determine the brain bioavailability of the compounds. Immediately after the 20-min compound treatment, the zebrafish were rinsed briefly to remove excessive compound on their body and terminated with 250 mg/L tricaine (CAS No. 886-86-2; Sigma). The fish were decapitated at the level of the gills using a surgical knife. The head was turned dorsal side down, and soft tissue was removed from the ventral side of the skull until the base of the skull was exposed. The skull was broken open and the bone from the ventral side of the brain was removed. The brain was then placed in a microcentrifuge tube, weighed, snap-frozen in liquid nitrogen, and stored at – 80 °C until the analysis.
# Briefly, on the day of analysis, the brain samples were defrosted, resuspended in a methanol solution (2:1 [v/v] methanol:MilliQ water), and homogenized with vigorous agitation and ultrasonication (5 min each). The homogenate was centrifuged at 15,000 × rpm for 10 min, and the supernatant was analyzed using a UPLC-Q Exactive Orbitrap-HRMS system (Thermo Fisher Scientific™, Bremen, Germany). Chromatographic separation was achieved on a Synergi™ 4-µm Hydro-RP 80 Å, L.C. Column (250 × 4.6 mm; Phenomenex Inc., Torrance, CA, USA) with 0.1% formic acid in water (mobile phase A) and 0.1% formic acid in acetonitrile (mobile phase B). A gradient method at a 500 µL/min flow rate was applied as follows: (1) 5% B for 1 min, and (2) increase to 95% B over 7 min and hold for 2 min. The injection volume was 5 μL. The mass spectrometer was operated in electrospray positive mode (ESI, Thermo Fisher Scientific), while data acquisition was performed using the parallel reaction monitoring (PRM) and full scan modes. The source settings were set as follows: sheath gas flow rate = 60 psi; aux gas flow rate = 20 arbitrary units; spray voltage = 3.5 kV; capillary temperature = 280 °C; and sweep gas flow rate = 1. The full scan mode parameters were set as follows: resolution = 35,000 FWHM at 200 m/z; AGC target = 1E6; maximum injection time = 110 ms; and scan range = 100–350 m/z. The chromatographic and Orbitrap MS parameters for PRM analysis were the same as those in the full scan mode, except for: AGC target = 2E5; maximum IT = 60 ms; and resolution = 17,500 FWHM at 200 m/z. The XCalibur™ v4.0.27.19 software (Thermo Fisher Scientific) and TraceFinder™ v4.1 Forensic (Thermo Fisher Scientific, San José, CA, USA) were used for system control and data processing, respectively. The Q Exactive 2.8 SP 1 software (Thermo Fisher Scientific) was used to control the mass spectrometer.
# [5] = test system: other molecular targets (175 in vitro binding and enzymatic assays); assay: In vitro molecular target profiling (175 binding and enzymatic assays); conditions: 10 µM single concentration; 175 assays; effect greater than 50% considered significant
# Experimental: as §1
# 3.1. Experimental Conditions
# In Vitro Pharmacology: Binding Assays
# as §2
# α7 nAChR = conditions: ref 2 (Alijevic, et al.); cited from earlier work
# T1 sequence (P43681 29-627 limits assumed): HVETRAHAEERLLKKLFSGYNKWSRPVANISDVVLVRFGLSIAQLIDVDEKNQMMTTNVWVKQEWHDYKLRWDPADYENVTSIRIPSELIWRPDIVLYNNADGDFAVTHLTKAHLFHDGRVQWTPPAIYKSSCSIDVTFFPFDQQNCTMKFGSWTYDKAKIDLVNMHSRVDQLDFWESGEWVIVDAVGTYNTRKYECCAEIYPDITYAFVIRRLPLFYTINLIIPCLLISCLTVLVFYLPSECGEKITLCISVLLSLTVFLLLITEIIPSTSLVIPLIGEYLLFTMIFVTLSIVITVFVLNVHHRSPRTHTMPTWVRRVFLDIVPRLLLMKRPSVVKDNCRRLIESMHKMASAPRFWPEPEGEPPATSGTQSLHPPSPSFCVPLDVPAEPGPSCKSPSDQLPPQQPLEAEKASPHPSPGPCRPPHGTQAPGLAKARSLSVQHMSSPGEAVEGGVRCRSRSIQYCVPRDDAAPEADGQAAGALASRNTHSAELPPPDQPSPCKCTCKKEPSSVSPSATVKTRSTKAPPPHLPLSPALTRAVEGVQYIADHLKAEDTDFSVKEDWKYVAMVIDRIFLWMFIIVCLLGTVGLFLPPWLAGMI
# T1 sequence (P17787 26-502): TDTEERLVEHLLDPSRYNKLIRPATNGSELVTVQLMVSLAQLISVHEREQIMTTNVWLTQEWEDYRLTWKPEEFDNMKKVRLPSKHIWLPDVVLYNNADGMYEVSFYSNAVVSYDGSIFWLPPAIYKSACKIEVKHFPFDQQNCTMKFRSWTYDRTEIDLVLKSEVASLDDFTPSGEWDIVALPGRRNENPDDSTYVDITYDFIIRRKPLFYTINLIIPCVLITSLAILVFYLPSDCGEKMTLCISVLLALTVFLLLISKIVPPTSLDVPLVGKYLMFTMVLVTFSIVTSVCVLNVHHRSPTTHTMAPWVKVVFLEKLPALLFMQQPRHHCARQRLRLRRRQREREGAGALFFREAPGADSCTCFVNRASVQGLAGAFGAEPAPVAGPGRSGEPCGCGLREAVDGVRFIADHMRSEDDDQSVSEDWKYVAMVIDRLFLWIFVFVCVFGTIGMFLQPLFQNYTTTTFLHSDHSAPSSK
smiles,measurement,setting,value
"CN1CCC[C@H]1c1cccnc1 [Nicotine, (–)-nicotine, reference compound]",Binding to α4β2 nAChR in target profiling,α4β2 nAChRs [1],specific binding
same,Concentration effective in reducing anxiety-like behavior in NTT,[2],0.3 mg/L
same,Binding to muscle-type nAChR in target profiling,muscle-type nAChR,specific binding
same,% activation of α4β2 nAChR (normalized to nicotine),α4β2 nAChRs [3],100%
same,concentration at 20 min,[4],700 ± 140 ng/g
same,Binding to or regulation of other molecular targets,[5],did not bind or regulate the activities of other molecular targets
same,α7 nAChR agonist activity,α7 nAChR,weak α7 nAChR agonist
